Laboratory results: the Kinase Knowledgebase extract (Sharma et al. 2016)

Assays:
EGFR = EGFR (UniProt P00533)
EGFR (murine) = EGFR (murine) (UniProt P00533); details: nih3t3
EGFR (murine), sequence (P00533 whole entry, looked up): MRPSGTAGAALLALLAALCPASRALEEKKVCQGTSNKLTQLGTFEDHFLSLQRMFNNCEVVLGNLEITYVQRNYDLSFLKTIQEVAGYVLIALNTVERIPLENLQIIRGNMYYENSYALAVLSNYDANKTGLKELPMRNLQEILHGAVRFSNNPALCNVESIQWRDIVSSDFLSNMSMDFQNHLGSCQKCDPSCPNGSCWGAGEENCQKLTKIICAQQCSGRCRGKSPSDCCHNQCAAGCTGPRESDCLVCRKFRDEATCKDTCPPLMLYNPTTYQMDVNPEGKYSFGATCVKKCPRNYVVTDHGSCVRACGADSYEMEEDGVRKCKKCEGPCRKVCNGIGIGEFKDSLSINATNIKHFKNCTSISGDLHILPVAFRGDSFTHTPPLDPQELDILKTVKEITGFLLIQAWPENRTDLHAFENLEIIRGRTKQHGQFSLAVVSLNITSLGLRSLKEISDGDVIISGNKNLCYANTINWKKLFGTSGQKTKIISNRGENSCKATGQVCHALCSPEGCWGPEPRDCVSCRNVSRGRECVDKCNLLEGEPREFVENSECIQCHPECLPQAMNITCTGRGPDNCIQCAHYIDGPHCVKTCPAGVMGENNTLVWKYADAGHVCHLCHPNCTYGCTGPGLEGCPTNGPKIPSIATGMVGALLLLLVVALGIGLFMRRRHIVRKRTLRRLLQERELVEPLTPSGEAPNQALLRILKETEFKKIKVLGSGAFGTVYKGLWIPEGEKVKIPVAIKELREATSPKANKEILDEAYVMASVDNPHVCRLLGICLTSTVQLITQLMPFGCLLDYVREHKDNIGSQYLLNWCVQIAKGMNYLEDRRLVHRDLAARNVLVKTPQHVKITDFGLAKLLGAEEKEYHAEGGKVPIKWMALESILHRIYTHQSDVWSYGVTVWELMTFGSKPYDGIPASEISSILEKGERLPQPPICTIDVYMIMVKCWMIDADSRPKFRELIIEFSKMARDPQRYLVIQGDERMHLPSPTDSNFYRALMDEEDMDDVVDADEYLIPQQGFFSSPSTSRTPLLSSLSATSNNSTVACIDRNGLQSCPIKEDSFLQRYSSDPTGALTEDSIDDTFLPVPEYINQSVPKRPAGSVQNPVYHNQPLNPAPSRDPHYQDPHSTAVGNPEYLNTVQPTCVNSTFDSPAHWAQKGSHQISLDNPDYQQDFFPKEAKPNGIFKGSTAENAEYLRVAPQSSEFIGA

EGFR, sequence (P00533 whole entry, looked up): as above

Row | IC50 (EGFR) | IC50 (EGFR (murine)) | SMILES
1 | > 100 µM |  | O=C1Nc2cccc(CCO)c2C1Cc1ccc(Br)cc1 (configuration not stated)
2 | > 100 µM |  | O=C1Nc2cc(-c3ccccc3)ccc2C1Cc1cc(Br)ccc1O (configuration not stated)
3 | > 100 µM |  | COc1ccc(CC2C(=O)Nc3ccc(F)cc32)cc1C1CCCC1 (configuration not stated)
4 | > 100 µM | > 50 µM | COc1c(C(C)C)cc(CC2C(=O)Nc3ccccc32)cc1C(C)C (configuration not stated)
5 | > 100 µM |  | O=C(Nc1ccc2c(c1)NC(=O)C2Cc1cc(Cl)ccc1O)C1CCCC1 (configuration not stated)
6 | > 100 µM | > 50 µM | COc1cccc(-c2ccc3c(c2)NC(=O)C3Cc2ccccc2O)c1 (configuration not stated)
7 | > 100 µM |  | COc1ccc2c(c1)NC(=O)C2Cc1ccc(OC)c(-c2ccsc2)c1 (configuration not stated)
8 | > 100 µM |  | COc1ccc(-c2cc(CC3C(=O)Nc4ccccc43)c(O)cc2OC)cc1 (configuration not stated)
9 | > 100 µM |  | COc1ccc(-c2ccc3c(c2)NC(=O)C3Cc2[nH]c(C)c(CCCN(C)C)c2C)cc1 (configuration not stated)
10 | > 100 µM |  | O=C(Nc1ccc2c(c1)NC(=O)C2Cc1cc(Cl)cc(Cl)c1O)C1CCCC1 (configuration not stated)
11 | > 100 µM |  | O=C1Nc2cccc(CCO)c2C1Cc1ccccc1 (configuration not stated)
12 | > 100 µM |  | COc1ccccc1-c1ccc2c(c1)NC(=O)C2Cc1[nH]c(C)c(CCCN(C)C)c1C (configuration not stated)
13 | > 100 µM | > 50 µM | Cc1cccc2c1C(Cc1ccc3[nH]ccc3c1)C(=O)N2 (configuration not stated)
14 | > 100 µM |  | CC(C)(C)c1cc(CC2C(=O)Nc3ccc(Cl)cc32)cc(Br)c1O (configuration not stated)
15 | > 100 µM | > 50 µM | COc1ccc(CC2C(=O)Nc3cc(-c4ccccc4)ccc32)c(O)c1 (configuration not stated)
16 | > 100 µM | > 50 µM | Cc1cccc(CC2C(=O)Nc3cccc(CCO)c32)n1 (configuration not stated)
17 | > 100 µM |  | COc1cc(C)c(CC2C(=O)Nc3ccccc32)cc1C(C)C (configuration not stated)
18 | > 100 µM | > 50 µM | COc1ccc(CC2C(=O)Nc3cc(NC(C)=O)ccc32)cc1-c1cccs1 (configuration not stated)
19 | > 100 µM | > 50 µM | Cc1ccc(O)c(/C=C2\C(=O)Nc3cccc(CCO)c32)n1
20 | > 100 µM |  | CC(C)c1cc(CC2C(=O)Nc3ccc(Cl)cc32)cc(C(C)C)c1OCCN1CCOCC1 (configuration not stated)
21 | > 100 µM |  | CC(=O)Nc1ccc2c(c1)NC(=O)C2Cc1ccc(OCCN2CCOCC2)c(C2CCCCC2)c1 (configuration not stated)
22 | > 100 µM |  | Cc1[nH]c(CC2C(=O)Nc3ccc(Cl)cc32)c(C)c1CCCN(C)C (configuration not stated)
23 | > 100 µM | > 50 µM | O=C1Nc2ccc(F)cc2C1Cc1ccc(O)c(C2CCCC2)c1 (configuration not stated)
24 | > 100 µM | > 50 µM | COc1ccc(CC2C(=O)Nc3ccc(CCN4CCOCC4)cc32)cc1-c1ccsc1 (configuration not stated)
25 | > 100 µM |  | O=C1Cc2c(CCOc3cncc(Cl)c3)cccc2N1
26 | > 100 µM | > 50 µM | O=C1Nc2ccccc2C1Cc1ccc2[nH]ccc2c1 (configuration not stated)
27 | > 100 µM | > 50 µM | Cc1[nH]c(CC2C(=O)Nc3ccccc32)c(C)c1CCCN(C)C (configuration not stated)
28 | > 100 µM | > 50 µM | O=C1Nc2cc(-c3ccccc3)ccc2C1Cc1cccc(F)c1O (configuration not stated)
29 | 48.7 µM |  | COc1cccc(-c2ccc3c(c2)NC(=O)C3Cc2[nH]c(C)c(CCCN(C)C)c2C)c1 (configuration not stated)
30 | > 100 µM |  | O=C1Cc2c(CCOC(=O)NC3CCCCC3)cccc2N1

Further lines, the molecule ahead of its results:

Row | SMILES | IC50 (EGFR) | IC50 (EGFR (murine))
31 | COCCc1cccc2c1CC(=O)N2 | > 100 µM | 
32 | Cc1[nH]c(/C=C2\C(=O)Nc3cccc(CCOc4ccc(C(C)C)cc4)c32)c(C)c1CCC(=O)O | > 100 µM | > 50 µM
33 | Cc1[nH]c(/C=C2\C(=O)Nc3cccc(CCO)c32)c(C)c1CCCN(C)C | > 100 µM | 25.3 µM
34 | O=C1Nc2cc(-c3cccnc3)ccc2/C1=C\c1ccccc1O | > 100 µM | 
35 | O=C1Nc2cccc(CCO)c2/C1=C\c1ccc(Br)cc1 | > 100 µM | 
36 | CC(C)c1cccc(OCCc2cccc3c2CC(=O)N3)c1 | > 100 µM | 
37 | Cc1[nH]c(/C=C2/C(=O)Nc3cc(-c4cccs4)ccc32)c(C)c1CCCN(C)C | > 100 µM | 
38 | Cc1[nH]c(/C=C2/C(=O)Nc3cc(-c4cccnc4)ccc32)c(C)c1CCCN(C)C | 12.1 µM | 
39 | CCNC(=O)OCCc1cccc2c1CC(=O)N2 | > 100 µM | 
40 | COc1ccc(/C=C2/C(=O)Nc3cc(-c4cccnc4)ccc32)cc1-c1cccs1 | > 100 µM | 
41 | O=C1Nc2cc(-c3ccsc3)ccc2/C1=C\c1ccccc1O | > 100 µM | 
42 | COc1ccc(OCCc2cccc3c2CC(=O)N3)cc1 | > 100 µM | 
43 | O=C1Cc2c(CCOc3cccc(-c4ccccc4)c3)cccc2N1 | > 100 µM | 
44 | COc1ccc(/C(=C2/C(=O)Nc3ccccc32)c2[nH]c(C)cc2C)cc1 |  | > 50 µM
45 | COc1ccc(/C=C2\C(=O)Nc3cccc(CCO)c32)cc1-c1cccs1 | > 100 µM | 
46 | O=C1Cc2c(CCOC(=O)Nc3ccccc3)cccc2N1 | > 100 µM | 

Row | SMILES | IC50 (EGFR) | IC50 (EGFR (murine))
47 | COc1ccc(/C=C2/C(=O)Nc3cc(-c4cccs4)ccc32)cc1-c1cccs1 | > 100 µM | 
48 | O=C1Cc2c(CCOC(=S)Nc3ccccc3)cccc2N1 | > 100 µM | 
49 | O=C1Nc2cc(-c3cccs3)ccc2/C1=C\c1ccccc1O | > 100 µM | 
50 | CC(C)NC(=O)OCCc1cccc2c1CC(=O)N2 | > 100 µM | 
51 | O=C1Cc2c(CCOC(=O)NS(=O)(=O)c3ccccc3)cccc2N1 | > 100 µM | 
52 | CC(C)c1ccccc1OCCc1cccc2c1CC(=O)N2 | > 100 µM | 
53 | CC(C)(C)NC(=O)OCCc1cccc2c1CC(=O)N2 | > 100 µM | 
54 | CCOCCc1cccc2c1CC(=O)N2 | > 100 µM | 
55 | O=C1Cc2c(CCOC(=O)Nc3ccccc3-c3ccccc3)cccc2N1 | > 100 µM | 
56 | CC(C)c1ccc(OCCc2cccc3c2CC(=O)N3)cc1 | > 100 µM | 
57 | O=C1Nc2cccc(CCO)c2/C1=C/c1ccc2[nH]ccc2c1 | > 100 µM | 
58 | COc1ccc(/C=C2/C(=O)Nc3cc(-c4ccsc4)ccc32)cc1-c1cccs1 | > 100 µM | 
59 | O=C1Nc2cccc(CCO)c2/C1=C/c1ccccn1 | > 100 µM | 3 µM
60 | Cc1[nH]c(/C=C2\C(=O)Nc3cccc(CCOc4cccc(C(C)C)c4)c32)c(C)c1CCCN(C)C | > 100 µM | 
61 | Cc1[nH]c(CC2C(=O)Nc3ccc(Br)cc32)c(C)c1CCCN(C)C (configuration not stated) | > 100 µM | 
62 | Cc1cccc(/C=C2\C(=O)Nc3cccc(CCO)c32)n1 | > 100 µM | 
